This assay is described as follows: Inhibition of compound against Guanine-7-methyl transferase.

`Nc1nc(O)c2cc(CSC[C@H]3O[C@@H](n4cnc5c(N)ncnc54)[C@H](O)[C@@H]3O)[nH]c2n1` registered an inhibition constant Ki of 93 µM.
